Counter-ions that a name gives are not always drawn.

In general, MIC refers to the lowest concentration found to suppress growth.

The subject of the first test is P. mirabilis 889. Kind of test: MIC against P. mirabilis 889. Format: cell-based. The following applies: P. mirabilis 889.
On to `CCN1CCN(C(=O)NC(C(=O)NC2(NC=O)C(=O)N3C(C(=O)[O-])C(C)(C)SC32)c2ccc(O)c(O)c2)C(=O)C1=O.[Na+]` (stereo not drawn) [Example 33, 6β-[2-[(4-Ethyl-2,3-dioxopiperazin-1-yl)carbonylamino]-2-(3,4-dihydroxyphenyl)acetamido]6α-formamidopenicillanic acid, sodium salt], for which the “MIC against P. mirabilis 889” value is 0.2 µg/mL.

The test is the same for the next values; noted with them: Proteus mirabilis, 889.
`CNC(=O)C[C@@H](N)C(=O)N[C@@H](C(=O)N[C@]1(NC=O)C(=O)N2[C@@H](C(=O)O)C(C)(C)S[C@@H]21)c1ccc(O)cc1` [Example 50, 6β-[D-2-[D-2-amino-3-(N-methylcarbamoyl)propionamido]-2-(4-hydroxyphenyl)acetamido]-6α-formamidopenicillanic acid, sodium salt]: the minimum inhibitory concentration (MIC) is 1 µg/mL.

Staying with this test, now noted: Proteus mirabilis, 889, P. mirabilis 889.
Turning to `CC1(C)S[C@H]2N(C(=O)[C@@]2(NC=O)NC(=O)[C@H](NC(=O)Nc2cnc(Nc3ccc(S(N)(=O)=O)cc3)nc2O)c2ccc(O)cc2)[C@H]1C(=O)O` [Example 19, 6β-[D-2-[3-[2-(4-Aminosulphonylphenyl)amino-4-hydroxypyrimidin-5-yl]ureido]-2-(4-hydroxyphenyl)acetamido]-6α-formamidopenicillanic acid, disodium salt], the MIC worked out at 0.5 µg/mL.

In turn, `CC1(C)S[C@H]2N(C(=O)[C@@]2(NC=O)NC(=O)[C@H](NC(=O)N2CCN(N=Cc3ccco3)C2=O)c2ccc(O)cc2)[C@H]1C(=O)O` [Example 20, 6α-Formamido-6β-[D-2-[[3-(furan-2-ylmethyleneamino)-2-oxoimidazolidin-1-yl]carbonylamino]-2-(4-hydroxyphenyl)acetamido]penicillanic acid, sodium salt] had a minimum inhibitory concentration (MIC) of 0.25 µg/mL.

For `CC1(C)S[C@H]2N(C(=O)[C@@]2(NC=O)NC(=O)[C@H](NC(=O)[C@@H](Cc2ccccc2)NC(N)=O)c2ccc(O)cc2)[C@H]1C(=O)O` [Example 21, 6β-[D-2-(D-2-Carbamoylamino-3-phenylpropionamido)-2-(4-hydroxyphenyl)acetamido]-6α-formamidopenicillanic acid, sodium salt], it took 2.5 µg/mL to inhibit growth (MIC).

Molecule `CC1(C)S[C@H]2N(C(=O)[C@@]2(NC=O)NC(=O)C(NC(=O)c2cc3ccccc3oc2=O)c2ccc(O)cc2)[C@H]1C(=O)O` (stereo partly drawn) [Example 22, 6β-[2-[(Coumarin-3-yl)carbonylamino]-2-(4-hydroxyphenyl)acetamido]-6α-formamidopenicillanic acid, sodium salt] registered an MIC of 10 µg/mL.

`CC1(C)S[C@H]2N(C(=O)[C@@]2(NC=O)NC(=O)[C@H](NC(=O)N2CCN(S(C)(=O)=O)C2=O)c2ccc(O)cc2)[C@H]1C(=O)O` [Example 24, 6α-Formamido-6β-[D-2-(4-hydroxyphenyl)-2-[(3-methylsulphonyl-2-oxoimidazolidin-1-yl)carbonylamino]acetamido]penicillanic acid, sodium salt] yielded an MIC of 0.1 µg/mL.

As for `CCOC(=O)c1[nH]cnc1C(=O)N[C@@H](C(=O)N[C@]1(NC=O)C(=O)N2[C@@H](C(=O)O)C(C)(C)S[C@@H]21)c1ccc(O)cc1` [Example 25, 6β-[D-2-[(5-Ethoxycarbonylimadazol-4-yl)carbonylamino]-2-(4-hydroxyphenyl)acetamido]-6α-formamidopenicillanic acid, sodium salt], the minimum inhibitory concentration (MIC) was 10 µg/mL.

Take `CCN1CCN(C(=O)N[C@@H](C(=O)N[C@]2(NC=O)C(=O)N3[C@@H](C(=O)O)C(C)(C)S[C@@H]32)c2cccs2)C(=O)C1=O` [Example 26, 6β-[D-2-(4-Ethyl-2,3-dioxopiperazin-1-yl)carbonylamino]-2-(thien-2-yl)acetamido]-6α-formamidopenicillanic acid, sodium salt]: the MIC came to 0.1 µg/mL.

`CCN1CCN(C(=O)N[C@H](C(=O)N[C@]2(NC=O)C(=O)N3[C@@H](C(=O)O)C(C)(C)S[C@@H]32)c2cccs2)C(=O)C1=O` [Example 27, 6β-[L-2-[(4-Ethyl-2,3-dioxopiperazin-1-yl)carbonylamino]-2-(thien-2-yl)acetamido]-6α-formamidopenicillanic acid sodium salt]: the MIC came to 0.5 µg/mL.

Molecule `CCN1CCN(C(=O)N[C@@H](C(=O)N[C@]2(NC=O)C(=O)N3[C@@H](C(=O)O)C(C)(C)S[C@@H]32)[C@H](C)OCc2ccccc2)C(=O)C1=O` [Example 30, 6β-[(2R,3S)-3-Benzyloxy-2-[(4-ethyl-2,3-dioxopiperazin-1-yl)carbonylamino]butyramido]-6α-formamidopenicillanic acid, sodium salt] displayed an MIC of 100 µg/mL.

Molecule `CC1(C)S[C@H]2N(C(=O)[C@@]2(NC=O)NC(=O)[C@H](NC(=O)Nc2cnc(Nc3ccccc3)nc2O)c2ccc(O)cc2)[C@H]1C(=O)O` [Example 32, 6α-Formamido-6β-[D-2-(4-hydroxyphenyl)-2-[3-[4-hydroxy-2-(phenylamino)pyrimidin-5-yl]ureido]acetamido]penicillanic acid, sodium salt] registered a minimal inhibitory concentration (MIC) of 5 µg/mL.

On to `CC(=O)OCC1=C(C(=O)O)N2C(=O)[C@@](NC=O)(NC(=O)[C@H](N)c3ccccc3)[C@H]2SC1` [Example 35, 7β-(D-2-Amino-2-phenylacetamido)-7α-formamidocephalosporanic acid, trifluoroacetic acid salt], for which the minimum inhibitory concentration (MIC) is above 100 µg/mL.

With `CCN1CCN(C(=O)N[C@@H](C(=O)N[C@]2(NC=O)C(=O)N3C(C(=O)O)=C(COC(C)=O)CS[C@@H]32)c2ccccc2)C(=O)C1=O` [Example 36, 7β-[D-2-[(4-Ethyl-2,3-dioxopiperazin-1-yl)carbonylamino]-2-phenylacetamido]-7α-Formamidocephalosporanic acid, sodium salt], it took 0.2 µg/mL to inhibit growth (MIC).

Turning to `CC(=O)OCC1=C(C(=O)O)N2C(=O)[C@@](NC=O)(NC(=O)[C@H](NC(=O)N3CCN(S(C)(=O)=O)C3=O)c3ccccc3)[C@H]2SC1` [Example 38, 7α-Formamido-7β-[D-2-[[3-(methylsulphonyl)-2-oxoimidazolidin-1-yl]carbonylamino]-2-phenylacetamido]cephalosporanic acid, sodium salt], the MIC turned out to be 1 µg/mL.

The molecule `CCN1CCN(C(=O)N[C@@H](C(=O)N[C@]2(NC=O)C(=O)N3C(C(=O)O)=C(COC(C)=O)CS[C@@H]32)c2ccc(O)cc2)C(=O)C1=O` [Example 39, 7β-[D-2-[(4-Ethyl-2,3-dioxopiperazin-1-yl)carbonylamino]-2-(4-hydroxyphenyl)acetamido]-7α-formamidocephalosporanic acid, sodium salt] displayed an MIC of 0.2 µg/mL.

The molecule `CCN1CCN(C(=O)N[C@H](C(=O)N[C@]2(NC=O)C(=O)N3C(C(=O)O)=C(COC(C)=O)CS[C@@H]32)c2ccc(O)cc2)C(=O)C1=O` [Example 40, 7β-[L-2-[(4-Ethyl-2,3-dioxopiperazin-1-yl)carbonylamino]-2-(4-hydroxyphenyl)acetamido]-7α-formamidocephalosporanic acid, sodium salt] had an MIC of 100 µg/mL.

On to `CCN1CCN(C(=O)N[C@@H](C(=O)N[C@]2(NC=O)C(=O)N3C(C(=O)O)=C(COC(C)=O)CS[C@@H]32)c2ccc(OC(C)=O)c(OC(C)=O)c2)C(=O)C1=O` [Example 41, 7β-[D-2-[(4-Ethyl-2,3-dioxopiperazin-1-yl)carbonylamino]-2-(3,4-diacetoxyphenyl)acetamido]-7α-formamidocephalosporanic acid, sodium salt], for which inhibition of growth (MIC) required 0.1 µg/mL.

Consider `CC(=O)OCC1=C(C(=O)O)N2C(=O)[C@@](NC=O)(NC(=O)Cc3cccs3)[C@H]2SC1` [Example 42, 7α-Formamido-7β-(thien-2-ylacetamido)cephalosporanic acid, sodium salt], for which inhibition of growth (MIC) required 10 µg/mL.

In turn, `CC(=O)OCC1=C(C(=O)O)N2C(=O)[C@@](NC=O)(NC(=O)C(C(=O)O)c3ccsc3)[C@H]2SC1` (stereo partly drawn) [Example 43, 7β-[2-Carboxy-2-(thien-3-yl)acetamido]-7α-formamido cephalosporanic acid, disodium salt] showed a minimum inhibitory concentration (MIC) of 100 µg/mL.

Take `CCN1CCN(C(=O)N[C@@H](C(=O)N[C@]2(NC=O)C(=O)N3C(C(=O)O)=C(COC(C)=O)CS[C@@H]32)c2cccs2)C(=O)C1=O` [Example 44, 7β-[D-2-[(4-Ethyl-2,3-dioxopiperazin-1-yl)carbonylamino]-2-(thien-2-yl)acetamido]-7α-formamido-cephalosporanic acid, sodium salt]: the minimal inhibitory concentration (MIC) is 0.1 µg/mL.

In turn, `CCN1CCN(C(=O)N[C@H](C(=O)N[C@]2(NC=O)C(=O)N3C(C(=O)O)=C(COC(C)=O)CS[C@@H]32)c2cccs2)C(=O)C1=O` [Example 45, 7β-[L-2-[(4-Ethyl-2,3-dioxopiperazin-1-yl)carbonylamino]-2-(thien-2-yl)acetamido]-7α-formamidocephalosporanic acid, sodium salt] registered a minimum inhibitory concentration (MIC) of 0.25 µg/mL.

Take `CC(=O)OCC1=C(C(=O)O)N2C(=O)[C@@](NC=O)(NC(=O)Cc3csc(N)n3)[C@H]2SC1` [Example 46, 7β-[2-(2-Aminothiazol-4-yl)acetamido]-7α-formamidocephalosporanic acid, trifluoroacetic acid salt]: the MIC amounted to 100 µg/mL.

`CC1(C)S[C@H]2N(C(=O)[C@@]2(NC=O)NC(=O)[C@H](NC(=O)Nc2cc3ccccc3oc2=O)c2ccc(O)cc2)[C@H]1C(=O)O` [Example 47, 6β-[D-2-[3-(Coumarin-3-yl)ureido]-2-(4-hydroxyphenyl)acetamido]-6α-formamidopenicillanic acid, sodium salt]: 100 µg/mL was the least that counted as inhibitory (MIC).

The molecule `CC1(C)S[C@H]2N(C(=O)[C@@]2(NC=O)NC(=O)[C@H](NC(=O)Nc2coc3ccccc3c2=O)c2ccc(O)cc2)[C@H]1C(=O)O` [Example 48, 6β-[D-2-[3-(4-Oxo-4H-1-benzopyran-3-yl)ureido]-2-(4-hydroxyphenyl)acetamido]-6α-formamidopenicillanic acid, sodium salt] came in with a minimal inhibitory concentration (MIC) of 50 µg/mL.

In turn, `Cc1ccc2c(O)c(C(=O)N[C@@H](C(=O)N[C@]3(NC=O)C(=O)N4[C@@H](C(=O)O)C(C)(C)S[C@@H]43)c3ccc(O)cc3)cnc2n1` [Example 49, 6α-Formamido-6β-[D-2-[(4-hydroxy-7-methyl-1,8-naphthyridin-3-yl)carbonylamino]-2-(4-hydroxyphenyl)acetamido]penicillanic acid, sodium salt] came in with an MIC of 5 µg/mL.

As for `CC(=O)OCC1=C(C(=O)O)N2C(=O)[C@@](NC=O)(NC(=O)CSCC#N)[C@H]2SC1` [Example 51, 7β-[2-(Cyanomethylthio)acetamido]-7α-formamidocephalosporanic acid, sodium salt], 25 µg/mL was the least that counted as inhibitory (MIC).

Values taken from patent US4539149A, “β-Lactam antibacterial agents” (Beecham Group p.l.c., priority 1981, dated 1985).
